Experimental data reported in patent US20170280720A1, “ARGININE […] INHIBITORS AND USES THEREOF” (EPIZYME, INC., priority 2014, published 2017).
pIC50: −log10 of the molar value.

How the values were obtained:
Human CARM1 (PRMT4) = molecular target: T1, Human CARM1 (PRMT4) (Homo sapiens, UniProt Q86X55); test: CARM1 biochemical assay (3H-SAM Flashplate, peptide substrate); settings: read-out: CARM1_ IC50
T1 construct: Flag-CARM1-His; made in house; host or cells: HEK 293F cells (BacMam baculovirus, pFastBacMam)
T1 sequence (Q86X55 2-585 isoform Q86X55-1): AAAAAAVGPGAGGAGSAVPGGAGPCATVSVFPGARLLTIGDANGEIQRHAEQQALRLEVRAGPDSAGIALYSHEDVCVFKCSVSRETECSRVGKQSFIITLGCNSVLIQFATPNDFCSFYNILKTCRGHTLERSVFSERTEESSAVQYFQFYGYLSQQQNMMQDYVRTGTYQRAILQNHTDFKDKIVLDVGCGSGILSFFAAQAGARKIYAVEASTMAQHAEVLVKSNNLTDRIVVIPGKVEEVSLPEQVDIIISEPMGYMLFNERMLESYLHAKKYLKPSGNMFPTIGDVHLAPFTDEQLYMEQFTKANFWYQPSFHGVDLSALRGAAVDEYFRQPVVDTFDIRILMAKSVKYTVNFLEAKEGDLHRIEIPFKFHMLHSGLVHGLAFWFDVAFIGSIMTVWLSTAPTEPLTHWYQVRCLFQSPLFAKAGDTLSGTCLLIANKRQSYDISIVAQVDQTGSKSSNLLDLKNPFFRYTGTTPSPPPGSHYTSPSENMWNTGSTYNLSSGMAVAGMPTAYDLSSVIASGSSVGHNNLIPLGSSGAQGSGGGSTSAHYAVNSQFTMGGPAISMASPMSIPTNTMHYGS
Excerpt: (§1) S-adenosylmethionine (SAM), S-adenosylhomocysteine (SAH), bicine, Tween20, dimethylsulfoxide (DMSO), bovine skin gelatin (BSG), sodium butyrate and Tris(2-carboxyethyl)phosphine hydrochloride solution (TCEP) were purchased from Sigma-Aldrich at the highest level of purity possible. ^3H-SAM was purchase from American Radiolabeled Chemicals with a specific activity of 80 Ci/mmol. 384-well streptavidin Flashplates were purchased from PerkinElmer.
Peptide representative of human histone H3 residues 16-30 was synthesized with an N-terminal linker-affinity tag motif and a C-terminal amide cap by 21st Century Biochemicals. The peptide was purified by high-performance liquid chromatography (HPLC) to greater than 95% purity and confirmed by liquid chromatography mass spectrometry (LC-MS). The sequence was Biot-Ahx-[…]-amide and contained a monomethylated arginine at position 26 (SEQ ID NO.: 14).
Human CARM1 (PRMT4) (NM_199141.1) transcript clone was amplified from an HEK 293 cDNA library, incorporating a flanking 5′ sequence encoding a FLAG tag ([…]) (SEQ ID NO.: 6) fused directly to Ala 2 of CARM1 and 3′ sequence encoding a hexa His sequence ([…]) (SEQ ID NO.: 15) fused directly to Ser 608. The gene sequence encoding isoform1 containing a deletion of amino acids 539-561 was amplified subsequently and subcloned into pFastBacMam (Viva Biotech).
Recombinant baculovirus were generated according to Bac-to-Bac kit instructions (Life Technologies). […] Infections were carried out at 37° C. for 48 hours, harvested by centrifugation, and stored at −80° C. for purification.
Column was washed with 500 mM NaCl in buffer A and Flag-CARM1-His was eluted with 200 ug/ml FLAG peptide in buffer A. Pooled fractions were dialyzed in 20 mM Tris, 150 mM NaCl, 5% glycerol and 1 mM DTT, pH 7.8. The purity of recovered protein was 94.
General Procedure for CARM1 Enzyme Assays on Peptide Substrates.
The assays were all performed in a buffer consisting of 20 mM Bicine (pH=7.6), 1 mM TCEP, 0.005% BSG, and 0.002% Tween 20, prepared on the day of use. Compounds in 100% DMSO (1 ul) were spotted into a polypropylene 384-well V-bottom plates (Greiner) using a Platemate Plus outfitted with a 384-channel head (Thermo Scientific). DMSO (1 ul) was added to Columns 11, 12, 23, 24, rows A-H for the maximum signal control and 1 ul of SAH, a known product and inhibitor of CARM1, was added to columns 11, 12, 23, 24, rows I-P for the minimum signal control. A cocktail (40 ul) containing the CARM1 enzyme was added by Multidrop Combi (Thermo-Fisher). The compounds were allowed to incubate with CARM1 for 30 min at room temperature, then a cocktail (10 ul) containing ^3H-SAM and peptide was added to initiate the reaction (final volume=51 ul). The final concentrations of the components were as follows: CARM1 was 0.25 nM, ^3H-SAM was 30 nM, peptide was 250 nM, SAH in the minimum signal control wells was 1 mM, and the DMSO concentration was 2%. The assays were stopped by the addition of non-radiolabeled SAM (10 ul) to a final concentration of 300 uM, which dilutes the ^3H-SAM to a level where its incorporation into the peptide substrate is no longer detectable. 50 ul of the reaction in the 384-well polypropylene plate was then transferred to a 384-well Flashplate and the biotinylated peptides were allowed to bind to the streptavidin surface for at least 1 hour before being washed once with 0.1% Tween20 in a Biotek ELx405 plate washer. The plates were then read in a PerkinElmer TopCount plate reader to measure the quantity of ^3H-labeled peptide bound to the Flashplate surface, measured as disintegrations per minute (dpm) or alternatively, referred to as counts per minute (cpm).
Where dpm=disintegrations per minute, cmpd=signal in assay well, and min and max are the respective minimum and maximum signal controls.
Where top and bottom are the normally allowed to float, but may be fixed at 100 or 0 respectively in a 3-parameter fit. […]

[1] = test system: asymmetric di-methyl PABP1 in RKO cells; test: In Cell Western (ICW) for asymmetric di-methyl PABP1 and DNA content in RKO cells; format: cell-based; settings: In Cell Western
Excerpt: RKO adherent cells were purchased from ATCC (American Type Culture Collection), Manassas, Va., USA. DMEM/Glutamax medium, penicillin-streptomycin, heat inactivated fetal bovine serum, 0.05% trypsin and D-PBS were purchased from Life Technologies, Grand Island, N.Y., USA. Odyssey blocking buffer, 800CW goat anti-rabbit IgG (H+L) antibody, and Licor Odyssey infrared scanner were purchased from Licor Biosciences, Lincoln, Nebr., USA. Mono-methyl arginine antibody was purchased from Cell Signaling Technology, Danvers, Mass., USA. Methanol was purchased from VWR, Franklin, Mass., USA. 10% Tween 20 was purchased from KPL, Inc., Gaithersburg, Md., USA. […] was purchased from Biostatus Limited, Leicestershire, UK. RKO adherent cells were maintained in growth medium (DMEM/Glutamax medium supplemented with 10% v/v heat inactivated fetal bovine serum and 100 units/mL penicillin-streptomycin) and cultured at 37° C. under 5% CO2. Cell Treatment, in Cell Western (ICW) for Detection of Asymmetric Di-Methyl PABP1 and DNA Content. RKO cells were seeded in assay medium at a concentration of 30,000 cells per mL to a poly-D-lysine coated 384 well culture plate (BD Biosciences 356697) with 50 μL per well. Compound (100 nL) from a 96-well source plate was added directly to 384 well cell plate. Plates were incubated at 37° C., 5% CO2 for 48 hours. After two days of incubation, plates were brought to room temperature outside of the incubator for ten minutes and blotted on paper towels to remove cell media. Cells were fixed for 20 minutes at room temperature by adding 50 μl of 8% PFA followed by aspiration of supernatant with the Biotek EL406 plate washer. Cells were then permeabilized by addition of 50 μL of ice cold 100% methanol directly to each well and incubated for 30 min at room temperature. After 30 min, plates were transferred to a Biotek EL406 plate washer and washed 2 times with 100 μL per well of wash buffer (1×PBS). Next 60 μL per well of Odyssey blocking buffer (Odyssey Buffer with 0.1% Tween 20 (v/v)) were added to each plate and incubated 1 hour at room temperature. Blocking buffer was removed and 20 μL per well of primary antibody was added (asymmetric-methyl PABP1) diluted 1:400 in Odyssey buffer with 0.1% Tween 20 (v/v)) and plates were incubated overnight (16 hours) at 4° C. Plates were washed 5 times with 100 μL per well of wash buffer. Next 20 μL per well of secondary antibody was added (1:800 800CW goat anti-rabbit IgG (H+L) antibody, 1:2000 DRAQS in Odyssey buffer with 0.1% Tween 20 (v/v)) and incubated for 1 hour at room temperature. The plates were washed 5 times with 100 μL per well wash buffer then 2 times with 100 μL per well of water. Plates were allowed to dry at room temperature then imaged on the Licor Odyssey machine which measures integrated intensity at 700 nm and 800 nm wavelengths. Both 700 and 800 channels were scanned. Calculations: First, the ratio for each well was determined by: Each plate included fourteen control wells of DMSO only treatment (minimum inhibition) as well as fourteen control wells for maximum inhibition treated with 20 μM of a reference compound. The average of the ratio values for each control type was calculated and used to determine the percent activation for each test well in the plate. Reference compound was serially diluted three-fold in DMSO for a total of nine test concentrations, beginning at 20 μM. Percent inhibition was determined and IC50 curves were generated using triplicate wells per concentration of compound.

human PRMT1 = molecular target: T2, human PRMT1 (Homo sapiens, UniProt Q99873); test: PRMT1 biochemical assay (3H-SAM Flashplate, peptide substrate); settings: read-out: PRMT1_ IC50
T2 construct: GST-tagged PRMT1; made in house; host or cells: High Five insect cells (baculovirus, pFastBacI)
T2 sequence (Q99873 with tags, fused parts or gaps): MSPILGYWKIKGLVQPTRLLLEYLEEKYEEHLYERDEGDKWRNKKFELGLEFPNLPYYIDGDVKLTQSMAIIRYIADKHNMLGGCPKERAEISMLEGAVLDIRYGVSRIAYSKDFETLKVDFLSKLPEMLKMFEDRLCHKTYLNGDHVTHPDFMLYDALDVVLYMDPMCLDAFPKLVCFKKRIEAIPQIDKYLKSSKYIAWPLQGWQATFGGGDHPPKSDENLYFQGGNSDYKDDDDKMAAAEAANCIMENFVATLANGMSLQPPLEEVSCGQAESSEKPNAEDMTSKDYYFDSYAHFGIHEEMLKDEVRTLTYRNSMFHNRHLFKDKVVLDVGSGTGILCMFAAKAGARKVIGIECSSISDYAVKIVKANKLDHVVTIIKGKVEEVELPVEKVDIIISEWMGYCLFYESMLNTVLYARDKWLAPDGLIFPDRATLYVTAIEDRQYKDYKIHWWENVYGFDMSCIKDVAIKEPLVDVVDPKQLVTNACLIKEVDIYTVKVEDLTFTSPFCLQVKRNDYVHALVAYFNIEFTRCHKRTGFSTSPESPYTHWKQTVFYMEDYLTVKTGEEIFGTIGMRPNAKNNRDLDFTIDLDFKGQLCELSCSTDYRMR
Excerpt: as §1, with “(BSG),” for “(BSG), sodium butyrate”
Peptide representative of human histone H4 residues 36-50 was synthesized with an N-terminal linker-affinity tag motif and a C-terminal amide cap by 21st Century Biochemicals. The peptide was purified by high-performance liquid chromatography (HPLC) to greater than 95% purity and confirmed by liquid chromatography mass spectrometry (LC-MS). The sequence was Biot-Ahx-[…]-amide (SEQ ID NO.: 1).
Full-length human PRMT1 isoform 1 (NM_001536.5) transcript clone was amplified from an HEK 293 cDNA library, incorporating flanking 5′ sequence encoding a FLAG tag ([…]) (SEQ ID NO.: 2) fused directly to Met 1 of PRMT1. The amplified gene was subcloned into pFastBacI (Life Technologies) modified to encode an N-terminal GST tag and a TEV cleavage sequence ([…] […] […] […] QGGNS)(SEQ ID NO.: 3) fused to Asp of the Flag tag of PRMT1.
Recombinant baculovirus were generated according to Bac-to-Bac kit instructions (Life Technologies). Protein over-expression was accomplished by infecting exponentially growing High Five insect cell culture at 1.5×10^6 cell/ml with 1:100 ratio of virus. Infections were carried out at 27° C. for 48 hours, harvested by centrifugation, and stored at −80° C. for purification.
GST-tagged PRMT1 was eluted with 50 mM Tris, 2 mM glutathione, pH 7.8, dialysed in buffer A and concentrated to 1 mg/mL. The purity of recovered protein was 73%. Reference: Wasilko, D. J. and S. E. Lee: “TIPS: titerless infected-cells preservation and scale-up” Bioprocess J., 5 (2006), pp. 29-32.
General Procedure for PRMT1 Enzyme Assays on Peptide Substrates.
The assays were all performed in a buffer consisting of 20 mM Bicine (pH=7.6), 1 mM TCEP, 0.005% BSG, and 0.002% Tween 20, prepared on the day of use. Compounds in 100% DMSO (1 ul) were spotted into a polypropylene 384-well V-bottom plates (Greiner) using a Platemate Plus outfitted with a 384-channel head (Thermo Scientific). DMSO (1 ul) was added to Columns 11, 12, 23, 24, rows A-H for the maximum signal control and 1 ul of SAH, a known product and inhibitor of PRMT1, was added to columns 11, 12, 23, 24, rows I-P for the minimum signal control. A cocktail (40 ul) containing the PRMT1 enzyme was added by Multidrop Combi (Thermo-Fisher). The compounds were allowed to incubate with PRMT1 for 30 min at room temperature, then a cocktail (10 ul) containing SAM and peptide was added to initiate the reaction (final volume=51 ul). The final concentrations of the components were as follows: PRMT1 was 0.5 nM, ^3H-SAM was 200 nM, non-radiolabeled SAM was 1.5 uM, peptide was 20 nM, SAH in the minimum signal control wells was 1 mM, and the DMSO concentration was 2%. The assays were stopped by the addition of non-radiolabeled SAM (10 ul) to a final concentration of 300 uM, which dilutes the ^3H-SAM to a level where its incorporation into the peptide substrate is no longer detectable. 50 ul of the reaction in the 384-well polypropylene plate was then transferred to a 384-well Flashplate and the biotinylated peptides were allowed to bind to the streptavidin surface for at least 1 hour before being washed once with 0.1% Tween20 in a Biotek ELx405 plate washer. The plates were then read in a PerkinElmer TopCount plate reader to measure the quantity of ^3H-labeled peptide bound to the Flashplate surface, measured as disintegrations per minute (dpm) or alternatively, referred to as counts per minute (cpm).
Where dpm=disintegrations per minute, cmpd=signal in assay well, and min and max are the respective minimum and maximum signal controls. […]

Row | pIC50 (Human CARM1 (PRMT4)) | pIC50 ([1]; Homo sapiens, RKO) | pIC50 [1] | pIC50 (human PRMT1) | Compound
1 | 7.92 | 5.22 | – | – | CNCCN(C)Cc1cccc(-c2cc(OC3CCOCC3)c3cnn(C(C)C)c3n2)c1 [Compound 187]
2 | 6.78 | 4.70 | – | – | CNCCN(C)Cc1cccc(-c2cc(CO)c3cnn(C(C)C)c3n2)c1 [Compound 290]
3 | 7.20 | 4.99 | – | – | CC(C)n1ncc2c(C(=O)N3CCC(F)C3)cc(-c3cccc(CN(C)CCN)c3)nc21 (stereo not drawn) [Compound 257]
4 | – | – | 5.65 | – | CNCCN(C)Cc1cccc(-c2cc(C(=O)NCc3cc(C)on3)c3cnn(C(C)C)c3n2)c1 [Compound 229]

More lines, now with the values behind:

Row | Compound | pIC50 (Human CARM1 (PRMT4)) | pIC50 ([1]; Homo sapiens, RKO) | pIC50 [1] | pIC50 (human PRMT1)
5 | CN(CCN)Cc1cccc(-c2cc(C(=O)NCC3CCOCC3)cc(N(C)CC3CC3)c2)c1 [Compound 208] | 7.68 | 5.26 | – | –
6 | CNCCN(C)Cc1cccc(-c2cc(C(=O)NCc3cc(C)on3)c3cnn(C(C)C)c3n2)c1 [Compound 186] | – | 5.85 | – | –
7 | CNCCN(C)Cc1cccc(-c2cncc(C(=O)NCc3c(C)cc(C)[nH]c3=O)c2)c1 [Compound 375] | – | – | – | 7.00
8 | Cc1cc(C)c(CNC(=O)c2cncc(-c3cccc(CN(C)CCN)c3)c2)c(=O)[nH]1 [Compound 380] | – | – | – | 6.47
